Data from publication PMC11960070 (Microbiology Spectrum, 2025).
Where no end group is shown, it is not given here.

Experiments:
[1] = test system: B. burgdorferi seropositive serum samples; test: MIA: Lyme disease-positive human serum IgG binding to Ala-substituted 130–150 peptides; details: n = 26 sera, 1:100
mAb 8C1 = test: MIA: 8C1 reactivity with OspC-derived peptides / alanine scan

Substance | Effect of Ala substitution on peptide recognition by human serum samples [1] | 8C1 reactivity with OspCA peptide (mAb 8C1)
D144: 130–150 peptide with single Ala substitution at D144 (CSETFTNKLKEKHTALGKEGV; also: biotinylated, site not given here; UniProt Q07337 130-150, looked up, variant D144A) | negatively affected | 
E140: 130–150 peptide with single Ala substitution at E140 (CSETFTNKLKAKHTDLGKEGV; also: biotinylated, site not given here; UniProt Q07337 130-150, looked up, variant E140A) | negatively affected | 
130–150: OspCA-derived peptide composed of residues 130-150 (CSETFTNKLKEKHTDLGKEGV; UniProt Q07337 130-150, looked up, fragment) |  | reacted strongly
